The values that follow come from publication PMC8269107, “Lipidation of Temporin-1CEb Derivatives as a Tool for Activity Improvement, Pros and Cons of the Approach” (International Journal of Molecular Sciences, 2021).

One data set relates to P. aeruginosa PCM 499. Put plainly: MIC, broth microdilution. In kind it is cell-based, Pseudomonas aeruginosa. As to conditions: P. aeruginosa PCM 499, 24 h. The text has this: (§1) Escherichia coli (PCM 2057 = ATCC 25922), Staphylococcus aureus (PCM 2054 = ATCC 25923), Staphylococcus epidermidis (PCM 2118 = ATCC 14990), Bacillus subtilis (PCM 2224 = ATCC 9799), Bacillus cereus (PCM 482 = ATCC 10702) and Pseudomonas aeruginosa (PCM 499 = ATCC 10145) were obtained from the Polish Collection of Microorganisms. Fungi strains Candida albicans (CCM 8186 = CNTC 49/64), Candida glabrata (CCM 8270 = ATCC 90030), Candida parapsilosis (CCM 8260 = ATCC 22019) and Candida krusei (CCM 8271 = ATCC 6258) were acquired from the Czech Collection of Microorganisms. S. aureus USA300 (wild type strain), the reference strain of Klebsiella pneumoniae (ATCC 13883) and clinical isolates of Pseudomonas aeruginosa (PA1, PA2) collected from nonrelated patients admitted to the Stefan Zeromski Specialist Municipal Hospital in Krakow (Poland) were kindly provided by the research group of the Department of Microbiology, Faculty of Biochemistry, Biophysics and Biotechnology, Jagiellonian University, Krakow, Poland.
(§2) Luria-Bertani broth (LB) and Sabouraud Dextrose broth (SB) (Biocorp, Poland) were used for cultivation of bacteria and fungi strains, respectively. The antimicrobial activity of the peptides were analyzed through determination of MIC (minimal inhibitory concentration) parameters according to Clinical and Laboratory Standards (CLSI) guidelines developed for aerobic bacteria and yeasts, respectively. Mueller-Hinton broth (MHB) was used as the working medium for all bacterial strains, while in the case of fungi, RPMI-1640 (with L-glutamine, without sodium bicarbonate) growth medium buffered with MOPS (morpholinepropanesulfonic acid) and supplemented with 2% glucose was used. Inoculum was prepared from freshly grown cultures of microorganisms at their exponential phase of growth. […] Plates were then incubated for 24 h at 37 °C in the case of bacteria and at 35 °C in the case of fungi. After that time, absorbance was read at 590 nm with a Perkin Elmer plate reader. Cultures without peptide were treated as positive control, while uninoculated media were defined as negative control. All measurements were run at least in triplicate.

Another data set has as its system S. epidermidis PCM 2118. As to the kind of experiment: MIC, broth microdilution. Type of data set: cell-based, Staphylococcus epidermidis. To be noted: S. epidermidis PCM 2118, 24 h.
From the text: as §1, §2
(In general: Broth dilution looks for growth in wells or tubes with falling amounts of substance.)

For another data set, the system named is C.parapsilosis CCM 8260. As to the kind of experiment: MIC, broth microdilution. Type of data set: cell-based, Candida parapsilosis. As to conditions: C.parapsilosis CCM 8260, 24 h.
From the text: as §1, §2

In a further data set the test system is keratinocytes (HaCaT). Put plainly: Cytotoxicity, MTT assay. In kind it is cell-based, human. As to conditions: 24 h. As for the experimental part:
(§3) Human dermal fibroblasts were obtained as previously reported from biopsies of healthy human skin of three donors undergoing a surgery. All procedures were approved by the Ethics Committee of Medicinal University of Gdansk (NKEBN/483/2011 and NKBBN/745/2019-2020). Immortalized human HaCaT keratinocytes (DKFZ Heidelberg, Germany) were obtained commercially.
(§4) Both types of cell lines were grown in Dulbecco′s Modified Eagle′s Medium (DMEM) (Sigma-Aldrich, Germany), containing […] of glucose, […] of L- glutamine, sodium pyruvate and sodium bicarbonate. Additionally, the medium was supplemented with 10% FCS (fetal calf serum, Sigma-Aldrich, Germany), 100 U/mL of penicillin and 100 μg/mL of streptomycin (Sigma-Aldrich, Germany). The cells were grown in standard culture dishes (BD, USA) in a humidified atmosphere with 5% CO2 at […], and the medium was changed every 2 days.
(§5) The fibroblasts and keratinocytes were seeded at density of 5500 cells per well into 96-well plates suspended in a medium supplemented with 10% FCS. After 24 h from seeding, the media were exchanged with serum- and antibiotic-free DMEM and tested peptides, dissolved in sterile water, which were added, yielding a final concentration ranging from 1 to 50 μg/mL. The cells were then incubated for the next 24 h. At the end of the experiment, the cells were treated with 20 μL of MTT (5 mg/mL in PBS). After 3 h of incubation in the presence of MTT dye, the DMEM medium was discarded and replaced with 6 mM HCl in isopropanol. When the purple crystals of formazan were fully solubilized, absorbance at 570 nm was read.

A further data set concerns primary fibroblasts. Put plainly: Cytotoxicity, MTT assay. In kind it is cell-based, human. As to conditions: 24 h. On the procedure:
as §3, §4, §5
(Tetrazolium assays rely on reduction of a dye to a coloured formazan, in cell work by metabolically active cells.)

A further data set deals with C.glabrata CCM 8270. Put plainly: MIC, broth microdilution. Type of data set: cell-based, Candida glabrata. To be noted: C.glabrata CCM 8270, 24 h.
From the text: as §1, §2

Another data set can be described thus: Gelation in water. In kind it is physicochemical. As to conditions: for gel formation in water: within the range of analyzed concentrations.
A further data set relates to S. aureus PCM 2054. Put plainly: MIC, broth microdilution. Type of data set: cell-based, Staphylococcus aureus. To be noted: S. aureus PCM 2054, standard Mueller-Hinton broth, 24 h.
From the text: as §1, §2

The subject of a further data set is B. cereus PCM 482. Put plainly: MIC, broth microdilution. In kind it is cell-based, Bacillus cereus. To be noted: B. cereus PCM 482, 24 h.
From the text: as §1, §2

For the next data set, the system named is C.krusei CCM 8271. Put plainly: MIC, broth microdilution. Type of data set: cell-based, Candida krusei. To be noted: C.krusei CCM 8271, 24 h.
From the text: as §1, §2

Another data set relates to E. coli PCM 2057. As to the kind of experiment: MIC, broth microdilution. In kind it is cell-based, Escherichia coli. As to conditions: E. coli PCM 2057, 24 h.
From the text: as §1, §2

In another data set the test system is C.albicans CCM 8186. As to the kind of experiment: MIC, broth microdilution. In kind it is cell-based, Candida albicans. As to conditions: C.albicans CCM 8186, 24 h.
From the text: as §1, §2

The next data set has as its system B. subtilis PCM 2224. As to the kind of experiment: MIC, broth microdilution. Type of data set: cell-based, Bacillus subtilis. As to conditions: B. subtilis PCM 2224, 24 h.
From the text: as §1, §2

A further data set relates to K.pneumoniae ATCC 13883. In kind it is cell-based, Klebsiella pneumoniae. As to conditions: ATCC 13883, 24 h.
From the text: as §1, §2

Another data set concerns P. aeruginosa PA1. Type of data set: cell-based, Pseudomonas aeruginosa. To be noted: PA1, 24 h.
From the text: as §1, §2

Another data set relates to P. aeruginosa PA2. In kind it is cell-based, Pseudomonas aeruginosa. To be noted: PA2, 24 h.
From the text: as §1, §2

Values after ≈ are worked out from the molar mass of the structure shown. Where no end group is shown, it is not given here. Bounds are passed on as bounds.

On to `CCCCCCCCCCCCCCCC(=O)NCCC(=O)N[C@@H](Cc1c[nH]cn1)C(=O)O` [Compound C16-CAR, CH3(CH2)14C(O)-βAH], for which the MIC100 entry in the data set on P. aeruginosa PCM 499, in the data set on S. epidermidis PCM 2118, in the data set on C.parapsilosis CCM 8260, against C.glabrata CCM 8270, against S. aureus PCM 2054 and against B. cereus PCM 482 was “Non-inhibitory” in each case. Besides, the MIC100 entry in the data set on C.krusei CCM 8271, against E. coli PCM 2057, against C.albicans CCM 8186 and with B. subtilis PCM 2224 was “Non-inhibitory” throughout. Further, the IC50 (commonly the concentration at which inhibition is half-maximal) came to 25 µg/mL (≈ 53.8 µM) in the data set on keratinocytes (HaCaT) and 12.5 µg/mL (≈ 26.9 µM) in the data set on primary fibroblasts. In addition, in the data set “Gelation in water”, the “gel formation in water” value is “formed self-standing gels in water”.

Consider “IKKILSKIKKLL-NH2 (C-terminus assumed) [DK5, reference compound]”, for which the “MIC100” value against K.pneumoniae ATCC 13883 was over 200 µg/mL; in the data set with P. aeruginosa PA1, 100 µg/mL; in the data set on P. aeruginosa PA2, 100 µg/mL. Besides, the IC50 with keratinocytes (HaCaT) and in the data set with primary fibroblasts was over 50 µg/mL each time.

Consider `CCCCC(=O)NCCC(=O)N[C@@H](Cc1c[nH]cn1)C(=O)O` [Compound C5-CAR, CH3(CH2)3C(O)-βAH], for which the MIC100 entry with P. aeruginosa PCM 499, in the data set on S. epidermidis PCM 2118, in the data set on C.parapsilosis CCM 8260, in the data set on C.glabrata CCM 8270, against S. aureus PCM 2054 and against B. cereus PCM 482 was “Non-inhibitory” in each case. For the same molecule, the MIC100 entry against C.krusei CCM 8271, against E. coli PCM 2057, in the data set with C.albicans CCM 8186 and in the data set with B. subtilis PCM 2224 was “Non-inhibitory” throughout. Besides, the IC50 in the data set on keratinocytes (HaCaT) and in the data set with primary fibroblasts was over 50 µg/mL in each case. Besides, in “Gelation in water” (concentrations of up to 5 mg/mL), the gelation in water result is listed as “gelation in water was not observed”.

As to `CCCCCCCCCCCC(=O)NCCC(=O)N[C@@H](Cc1c[nH]cn1)C(=O)O` [Compound C12-CAR, CH3(CH2)10C(O)-βAH], the MIC100 entry with P. aeruginosa PCM 499, with S. epidermidis PCM 2118, in the data set with C.parapsilosis CCM 8260, against C.glabrata CCM 8270, against S. aureus PCM 2054 and in the data set with B. cereus PCM 482 was “Non-inhibitory” in each case. Besides, the MIC100 entry with C.krusei CCM 8271, in the data set on E. coli PCM 2057, with C.albicans CCM 8186 and against B. subtilis PCM 2224 was “Non-inhibitory” throughout. For the same molecule, the IC50 with keratinocytes (HaCaT) and in the data set with primary fibroblasts was over 50 µg/mL throughout. For the same molecule, the “gelation of water solution” value in “Gelation in water” (concentration of 1 mg/mL) was “underwent gelation”. Moreover, the “gel formation in water” value in “Gelation in water” is “formed self-standing gels in water”.
